# Measured values taken from patent US20130101615A1, “METHODS FOR PREVENTING OR TREATING A DISEASE OR CONDITION ASSOCIATED WITH MYCOBACTERIUM AVIUM SUBSPECIES PARATUBERCULOSIS” (priority 2005, published 2013).
# Values joined by “and” are separate entries in the source; they are usually repeats but may differ in a detail not shown here. Equal entries are not always repeated. “Also recorded” adds a separate entry of the source. Where two headings read alike, the source gives them in different places.
# Assays:
# MAP = test: Growth inhibition of MAP (strain not stated or MAP strains in general); conditions: for %−ΔcGI (percent decrease in cumulative GI): Example 3, strain not stated; for effect on growth of MAP, in words: MAP strains in general
# MAP ATCC 19698 (bovine) = format: cell-based, Mycobacterium avium subspecies paratuberculosis; conditions: for % ΔcGI: Bovine MAP 19698, vs 3.2% DMSO control; for %-ΔcGI: Example 5
# M. avium 101 = format: cell-based, M. avium subspecies avium; conditions: for % ΔcGI: vs 3.2% DMSO control; for %-ΔcGI: Example 5
# [1] = test system: MAP 303 (ruminant with Johne's disease); test: Radiometric BACTEC growth inhibition, MAP 303; format: cell-based, Mycobacterium avium subspecies paratuberculosis; conditions: Bovine MAP 303, vs 3.2% DMSO control
# [2] = test system: MAP UCF 4, isolated from human with Crohn's disease; test: Radiometric BACTEC growth inhibition, MAP UCF4; format: cell-based, Mycobacterium avium subspecies paratuberculosis; conditions: Human MAP UCF4, vs 3.2% DMSO control
# M. avium ATCC 25291 = format: cell-based, M. avium subspecies avium; conditions: for % ΔcGI: M. avium 25291, vs 3.2% DMSO control; for %-ΔcGI / effect on growth, in words: M. avium ATCC 25291; for %-ΔcGI: Example 5
# [3] = test system: MAP Dominic (ATCC 43545), isolated from human with Crohn's disease; format: cell-based, Mycobacterium avium subspecies paratuberculosis; conditions: for % ΔcGI: vs 3.2% DMSO control; for %−ΔcGI (percent decrease in cumulative GI): MAP Dominic
# [4] = 1 μg/ml, MAP Dominic Expt A, Example 5
# [5] = 1 μg/ml, MAP Dominic Expt B, Example 5
# [6] = 4 μg/ml, MAP Dominic Expt A, Example 5
# [7] = 4 μg/ml, MAP Dominic Expt B, Example 5
# [8] = 16 μg/ml, MAP Dominic Expt A, Example 5
# [9] = 16 μg/ml, MAP Dominic Expt B, Example 5
# [10] = 64 μg/ml, MAP Dominic Expt A, Example 5
# [11] = 64 μg/ml, MAP Dominic Expt B, Example 5
compound,measurement,setting,value
CC1(C)S[C@@H]2[C@H](NC(=O)[C@H](N)c3ccccc3)C(=O)N2[C@H]1C(=O)O [ampicillin],%−ΔcGI (percent decrease in cumulative GI),MAP; 32 μg/ml,21%
"CC(C)/N=c1\cc2n(-c3ccc(Cl)cc3)c3ccccc3nc-2cc1Nc1ccc(Cl)cc1 [Clofazimine, clofazimine]",% ΔcGI,MAP ATCC 19698 (bovine); 1 μg/ml,−99%
same,% ΔcGI,MAP ATCC 19698 (bovine); 4 μg/ml,−99%
same,% ΔcGI,MAP ATCC 19698 (bovine); 16 μg/ml,−99%
same,% ΔcGI,MAP ATCC 19698 (bovine); 64 μg/ml,−99%
same,% ΔcGI,M. avium 101; 1 μg/ml,−98%
same,% ΔcGI,M. avium 101; 4 μg/ml,−98%
same,% ΔcGI,M. avium 101; 16 μg/ml,−98%
same,% ΔcGI,M. avium 101; 64 μg/ml,−99%
same,% ΔcGI,[1]; 1 μg/ml,−99%
same,% ΔcGI,[1]; 4 μg/ml,−99%
same,% ΔcGI,[1]; 16 μg/ml,−99%
same,% ΔcGI,[1]; 64 μg/ml,−99%
same,% ΔcGI,[2]; 1 μg/ml,−99%
same,% ΔcGI,[2]; 4 μg/ml,−99%
same,% ΔcGI,[2]; 16 μg/ml,−99%
same,% ΔcGI,[2]; 64 μg/ml,−99%
same,% ΔcGI,M. avium ATCC 25291; 1 μg/ml,−98%
same,% ΔcGI,M. avium ATCC 25291; 4 μg/ml,−98%
same,% ΔcGI,M. avium ATCC 25291; 16 μg/ml,−98%
same,% ΔcGI,M. avium ATCC 25291; 64 μg/ml,−99%
same,% ΔcGI,"[3]; 1 μg/ml, Human MAP Dominic Expt. 1",−99%
same,% ΔcGI,"[3]; 1 μg/ml, Human MAP Dominic Expt. 2",−99%
same,% ΔcGI,"[3]; 4 μg/ml, Human MAP Dominic Expt. 1",−99%
same,% ΔcGI,"[3]; 4 μg/ml, Human MAP Dominic Expt. 2",−99%
same,% ΔcGI,"[3]; 16 μg/ml, Human MAP Dominic Expt. 1",−99%
same,% ΔcGI,"[3]; 16 μg/ml, Human MAP Dominic Expt. 2",−99%
same,% ΔcGI,"[3]; 64 μg/ml, Human MAP Dominic Expt. 1",−99%
same,% ΔcGI,"[3]; 64 μg/ml, Human MAP Dominic Expt. 2",−99%
same,%−ΔcGI (percent decrease in cumulative GI),[3]; at 0.5 (concentration unit not given),97%
"O=C1CCC(N2C(=O)c3ccccc3C2=O)C(=O)N1 (racemic) [Thalidomide (±), thalidomide]",%-ΔcGI,"MAP ATCC 19698 (bovine); 1 μg/ml, MAP ATCC 19698",4%
same,%-ΔcGI,"MAP ATCC 19698 (bovine); 4 μg/ml, MAP ATCC 19698",8%
same,%-ΔcGI,"MAP ATCC 19698 (bovine); 16 μg/ml, MAP ATCC 19698",−7%
same,%−ΔcGI (percent decrease in cumulative GI),"MAP ATCC 19698 (bovine); 64 μg/ml, MAP ATCC 19698",26%
same,%-ΔcGI,"MAP ATCC 19698 (bovine); 64 μg/ml, MAP ATCC 19698",−26%
same,"effect on growth, in words",M. avium 101,no dose-dependent inhibition
same,%-ΔcGI,M. avium 101; 1 μg/ml,−20%
same,%-ΔcGI,M. avium 101; 4 μg/ml,−5%
same,%-ΔcGI,M. avium 101; 16 μg/ml,6%
same,%-ΔcGI,M. avium 101; 64 μg/ml,−14%
same,%-ΔcGI,M. avium ATCC 25291; 1 μg/ml,34%
same,%-ΔcGI,M. avium ATCC 25291; 4 μg/ml,37%
same,%-ΔcGI,M. avium ATCC 25291; 16 μg/ml,28%
same,%-ΔcGI,M. avium ATCC 25291; 64 μg/ml,25%
same,"effect on growth, in words",M. avium ATCC 25291,no dose-dependent inhibition
same,%-ΔcGI,[3]; [4],−2%
same,%-ΔcGI,[3]; [5],0%
same,%-ΔcGI,[3]; [6],−4%
same,%-ΔcGI,[3]; [7],−2%
same,%-ΔcGI,[3]; [8],−9%
same,%-ΔcGI,[3]; [9],−5%
same,%−ΔcGI (percent decrease in cumulative GI),[3]; 64 μg/ml,31%
same,%-ΔcGI,[3]; [10],−31%
same,%-ΔcGI,[3]; [11],−13%
"O=C1CCC(N2C(=O)c3ccccc3C2=O)C(=O)N1 (stereo not drawn) [Thalidomide (+), thalidomide]",%-ΔcGI,M. avium 101; 1 μg/ml,4%
same,%-ΔcGI,M. avium 101; 4 μg/ml,−5%
same,%-ΔcGI,M. avium 101; 16 μg/ml,16%
same,%-ΔcGI,M. avium 101; 64 μg/ml,−19%
same,"effect on growth of MAP, in words",MAP,more inhibitory than thalidomide (−)
same,%-ΔcGI,"[3]; 1 μg/ml, MAP (Dominic), Table 4",−4%
same,%-ΔcGI,"[3]; 4 μg/ml, MAP (Dominic), Table 4",1%
same,%-ΔcGI,"[3]; 16 μg/ml, MAP (Dominic), Table 4",−14%
same,%-ΔcGI,"[3]; 64 μg/ml, MAP (Dominic), Table 4",−58%
O=C1CCCC(=O)N1O [HPD],%-ΔcGI,"MAP ATCC 19698 (bovine); 1 μg/ml, MAP ATCC 19698",22%
same,%-ΔcGI,"MAP ATCC 19698 (bovine); 4 μg/ml, MAP ATCC 19698",7%
same,%-ΔcGI,"MAP ATCC 19698 (bovine); 16 μg/ml, MAP ATCC 19698",−3%
same,%−ΔcGI (percent decrease in cumulative GI),"MAP ATCC 19698 (bovine); 64 μg/ml, MAP ATCC 19698",−44%
same,%-ΔcGI,"MAP ATCC 19698 (bovine); 64 μg/ml, MAP ATCC 19698",−44%
same,"effect on growth, in words",M. avium 101,no dose-dependent inhibition
same,%-ΔcGI,M. avium 101; 1 μg/ml,−12%
same,%-ΔcGI,M. avium 101; 4 μg/ml,−52%
same,%-ΔcGI,M. avium 101; 16 μg/ml,−21%
same,%-ΔcGI,M. avium 101; 64 μg/ml,−36%
same,"effect on growth of MAP, in words",MAP,the most potent inhibitory agent evaluated; also recorded: inhibits the growth of MAP
same,%-ΔcGI,M. avium ATCC 25291; 1 μg/ml,−4%
same,%-ΔcGI,M. avium ATCC 25291; 4 μg/ml,47%
same,%-ΔcGI,M. avium ATCC 25291; 16 μg/ml,22%
same,%-ΔcGI,M. avium ATCC 25291; 64 μg/ml,21%
same,"effect on growth, in words",M. avium ATCC 25291,no dose-dependent inhibition
same,%-ΔcGI,[3]; [4],−5%
same,%-ΔcGI,[3]; [5],16%
same,%-ΔcGI,[3]; [6],−7%
same,%-ΔcGI,[3]; [7],6%
same,%-ΔcGI,[3]; [8],−18%
same,%-ΔcGI,[3]; [9],12%
same,%−ΔcGI (percent decrease in cumulative GI),[3]; 64 μg/ml,46%
same,%-ΔcGI,[3]; [10],−46%
same,%-ΔcGI,[3]; [11],−19%
Nc1ccc(S(=O)(=O)Nc2ccccn2)cc1 [sulfapyridine],"effect on proliferation / cumulative growth index, in words",MAP ATCC 19698 (bovine); MAP ATCC 19698,little effect on the cumulative growth index of MAP
same,"effect on growth, in words",M. avium 101,inhibited M. avium 101 in a dose-dependent manner
"Sc1ncnc2nc[nH]c12 [6-MP, 6-mercaptopurine]",%−ΔcGI (percent decrease in cumulative GI),"MAP ATCC 19698 (bovine); 4 μg/ml, MAP 19698, Example 3",~80% and 84%
same,"effect on growth, in words",M. avium 101,less susceptibility to 6-MP than to methotrexate
same,%−ΔcGI (percent decrease in cumulative GI),MAP; 1 μg/ml,≥ 43%
same,%−ΔcGI (percent decrease in cumulative GI),MAP; 4 μg/ml,≥ 84%
same,"effect on growth of MAP, in words",MAP,inhibit the growth kinetics of MAP
same,"effect on growth, in words",M. avium ATCC 25291,less susceptibility to 6-MP than to methotrexate
same,%−ΔcGI (percent decrease in cumulative GI),"[3]; 4 μg/ml, Example 3",41%
